Measured values from patent publication US9139608B2 (priority 2010, dated 2015).
Marks after values point to notes of the source that are not given here.

Key:
[1] = Pharmacokinetic study: availability of test drug at site of action; type: in vivo; settings: healthy rats, single oral dose 250 mg/kg, feces 0-24 h
Method: The blood samples were collected at 0, 0.25, 0.50, 1, 2, 3, 4, 5 and 6 hours after dosing. Plasma was obtained by centrifugation of blood at 7000 rpm for 15 min at 4° C. and kept at −20° C. until analysis was carried out. The animals were kept in the metabolic cages for collection of urine and feces.

TNBS induced IBD = test: TNBS induced colitis in rats; type: in vivo, Male Wistar rats
Source text: In addition, increased body weight, decreased ulcer index and myeloperoxidase activity in colon is seen.
The trinitrobenzenesulfonic acid (TNBS) induced colitis is one of the standard animal models used for IBD. In this model, a single intracolonic administration of TNBS damages the colonic epithelium and induces prolonged chronic inflammation.
Procedure: In this study, Male Wistar rats (280-291 g) were fasted for 48 hrs, and put under anaesthesia. A 3 mm diameter cannula was inserted into the anus to the depth of 8 cm and 25 mg of TNBS dissolved in 0.25 ml of 30% ethanol solution was injected to each rat. The rats were positioned tail up for 1 minute. […] A healthy control group receiving only saline but no TNBS was maintained. On day 11, each group of rats were sacrificed by cervical dislocation and the colon was isolated for physical examination. Colon samples were preserved in 10% neutral formalin solution for histopathological evaluation.

[2] = system: acetic acid induced colitis; test: Acetic acid induced colitis in rats; type: in vivo, Male Wistar rats; settings: 50 mg/kg p.o. once daily, pretreatment for 3 days, n = 6
Source text: The acetic-acid induced colitis is a model of IBD with a similarity of the inflammatory mediators to that of acute human intestinal inflammation.
Procedure: In this model, initial injury was an epithelial necrosis and edema that variably extended into the lamina propria, submucosa, or external muscle layers, depending of the concentrations and length of exposure to acetic acid. […] Rats were fasted for 24 hrs, anesthetized and a cannula that has 3 mm diameter was inserted into the anus to the depth of 8 cm for instilling 2 ml of 3% acetic acid into the colon for 30 s. After 24 hrs, animals were sacrificed by cervical dislocation, the colon was isolated and the parameters of colitis were measured. […] The reversal of acetic acid induced conditions such as increased colon weight and colon weight to length ratio, which indicated beneficial effects of test drugs on colitis. These effects were further confirmed by decrease in macroscopic lesion score and myeloperoxidase activity in colon tissues.

[3] = system: H. pylori (ATCC 26695, strain MS-5); test: H. Pylori infected rats with NSAID induced ulcers (RUT and PCR); type: in vivo, Helicobacter Pylori
Naproxen induced ulcers = Naproxen induced ulcers in rats, prophylactic; type: in vivo, Male Wistar rats; settings: then Naproxen 30 mg/kg p.o., n = 6
Source text: Gastric lesions induced by NSAIDS drugs such as Naproxen can aggravate inflammatory reactions in the GI tract.

histamine induced ulcers = test: Histamine (stress) induced ulcers in rats, prophylactic; type: in vivo, Male Wistar rats; settings: then Histamine 300 mg/kg i.p., n = 6
Source text: Stress induced gastric lesion is a condition that can cause or aggravate inflammatory reactions in the GI tract.

ethanol induced ulcers = test: Ethanol induced ulcers in rats, prophylactic; type: in vivo, Male Wistar rats; settings: then Ethanol 8 ml/kg p.o., n = 6
Method: Consumption of alcohol is another major factor resulting in gastric lesions.
The mean ulcer area in this study was measured to be 174.4 mm^2±5.814 mm^2 in the control group indicating the ulcerogenic effect of ethanol.

[4] = system: inflammatory bowel disease; test: Prospective study in patients with IBD, patient reported outcome; type: in vivo, Humans; parameters: key to Bleeding, Patient Recorded Outcome / Frequent trips to the bathroom, Patient Recorded Outcome / Dependence on medication diarrhea and pain, Patient Recorded Outcome / Abdominal pain, Patient Recorded Outcome / Diarrhea, Patient Recorded Outcome: 0—Absence; 1—Mild; 2—Moderate; 3—Severe; settings: 300 mg twice daily for 6 months; for Abdominal pain, Patient Recorded Outcome / Bleeding, Patient Recorded Outcome / Dependence on medication diarrhea and pain, Patient Recorded Outcome / Diarrhea, Patient Recorded Outcome / Frequent trips to the bathroom, Patient Recorded Outcome: IBD
Method: A prospective study to assess the efficacy of the test drug in patients with IBD was conducted.
Thereafter, the efficacy of the test drug was analyzed on the basis of patient reported outcome taken at the beginning and end of the study period. Observations: It was observed that all patients were experiencing relief from IBD related symptoms such as abdominal pain, diarrhea, rectal bleeding, fever, nausea and vomiting. It was further observed that there was significant improvement in bowel control which was seen from reduced frequency of visits to restrooms, dependence on diarrhoea medication and pain associated with bowel movement.

hemorrhoids = test: Prospective uncontrolled pilot study in patients with hemorrhoids, patient reported outcome; type: in vivo, Humans; settings: for Bloody stool, Median Value of Patient Reported Outcome / Difficulty to sit or walk, Median Value of Patient Reported Outcome / Edema, Median Value of Patient Reported Outcome / Itching, Median Value of Patient Reported Outcome / Pain, Median Value of Patient Reported Outcome: hemorrhoids, n = 5, scale 0 - Absence to 5 - Severe
Method: A prospective uncontrolled pilot study to access the efficacy of the test drug in patients with hemorrhoids was conducted. […] The efficacy of the test drug was analyzed on the basis of patient reported outcome taken at the beginning and end of the study period. […] It was further observed that there was significant relief in pain and irritation associated with bowel movement by the end of the treatment period.

[5] = TNBS induced IBD in rats, 50 mg/kg p.o. once daily, 10 days of treatment, n = 6
[6] = colon, TNBS induced IBD in rats, 50 mg/kg p.o. once daily, 10 days of treatment, n = 6
[7] = rats pretreated with 30 mg/kg p.o.
[8] = rats pretreated with 60 mg/kg p.o.
[9] = rats pretreated with 120 mg/kg p.o.
[10] = After Treatment, 300 mg twice daily for 15 days

## C[C@H]1[C@H](C)CC[C@]2(C(=O)OC3O[C@H](CO[C@H]4O[C@H](CO)[C@@H](O[C@@H]5O[C@@H](C)[C@H](O)[C@@H](O)[C@H]5O)[C@H](O)[C@H]4O)[C@@H](O)[C@H](O)[C@H]3O)CC[C@]3(C)C(=CCC4[C@@]5(C)C[C@@H](O)[C@H](O)[C@@](C)(CO)[C@@H]5CC[C@]43C)[C@H]12 (stereo partly drawn) [Test Drug, Asiaticoside]
[1]
  drug recovered from fecal matter: about 81.42%
TNBS induced IBD; [5]
  Colon length: 14.14 ± 0.53 mm
  Colon weight: 1.71 ± 0.07 g
  Colon width: 0.73 ± 0.13 mm
TNBS induced IBD; TNBS induced IBD in rats, Day 0, before treatment, n = 6
  Body weight: 252.67 ± 3.121^ns1
TNBS induced IBD; TNBS induced IBD in rats, Day 11 (10 days of treatment), 50 mg/kg p.o. once daily, n = 6
  Body weight: 293.00 ± 0.84***^
TNBS induced IBD; TNBS induced IBD in rats, Normal (Day −2), before treatment, n = 6
  Body weight: 286.50 ± 3.14^ns1
TNBS induced IBD; TNBS induced IBD model, post treatment after TNBS administration
  rectal bleeding: significantly reduced after 3rd day
TNBS induced IBD; [6]
  Microscopic score: 4.40 ± 0.68
  Myeloperoxidase activity: 0.02 ± 0.0003 U/mg
[2]
  Colon length: 16.22 ± 0.63 mm
  Colon weight: 1.53 ± 0.10 g
  Colon width: 0.71 ± 0.05 mm
[2]; colon
  Microscopic score: 4.33 ± 0.71
  Myeloperoxidase activity: 0.02 ± 0.002 U/mg
[3]; H. Pylori infected rats with NSAID induced ulcers
  ulcer area: dose dependent and time dependent reduction
[3]; H. pylori infected rats with Naproxen induced ulcers, 120 mg/kg p.o. twice daily
  eradication of H. Pylori infection (RUT, PCR): not effective in H. Pylori eradication
[3]; H. pylori infected rats with Naproxen induced ulcers, 240 mg/kg p.o. once daily
  eradication of H. Pylori infection (RUT, PCR): not effective in H. Pylori eradication
[3]; H. pylori infected rats with Naproxen induced ulcers, 360 mg/kg p.o. once daily
  antibacterial action on H. Pylori infection: rapid antibacterial action on 3rd week
[3]; H. pylori infected rats with Naproxen induced ulcers, 360 mg/kg p.o. once daily, 9 weeks
  eradication of H. Pylori infection (RUT, PCR): eradication of H. Pylori infection in 9 weeks
Naproxen induced ulcers; [7]
  Area of Ulceration: 5.49 ± 0.212^ns mm^2
Naproxen induced ulcers; [8]
  Area of Ulceration: 4.52 ± 0.169**^ mm^2
Naproxen induced ulcers; [9]
  Area of Ulceration: 2.632 ± 0.146***^ mm^2
Histamine induced ulcers; [7]
  Area of Ulceration: 9.242 ± 0.415* mm^2
Histamine induced ulcers; [8]
  Area of Ulceration: 7.062 ± 0.362*** mm^2
Histamine induced ulcers; [9]
  Area of Ulceration: 4.598 ± 0.323*** mm^2
Ethanol induced ulcers; [7]
  Area of Ulceration: 159.3 ± 4.846* mm^2
Ethanol induced ulcers; [8]
  Area of Ulceration: 137.6 ± 4.069*** mm^2
Ethanol induced ulcers; [9]
  Area of Ulceration: 110.4 ± 2.305*** mm^2
[4]; Patient 1, After
  Abdominal pain, Patient Recorded Outcome: 1
  Bleeding, Patient Recorded Outcome: 0
  Dependence on medication diarrhea and pain, Patient Recorded Outcome: 0
  Diarrhea, Patient Recorded Outcome: 0
  Frequent trips to the bathroom, Patient Recorded Outcome: 0
[4]; Patient 1, Before
  Abdominal pain, Patient Recorded Outcome: 3
  Bleeding, Patient Recorded Outcome: 3
  Dependence on medication diarrhea and pain, Patient Recorded Outcome: 3
  Diarrhea, Patient Recorded Outcome: 3
  Frequent trips to the bathroom, Patient Recorded Outcome: 3
[4]; Patient 2, After
  Abdominal pain, Patient Recorded Outcome: 0
  Bleeding, Patient Recorded Outcome: 0
  Dependence on medication diarrhea and pain, Patient Recorded Outcome: 0
  Diarrhea, Patient Recorded Outcome: 0
  Frequent trips to the bathroom, Patient Recorded Outcome: 1
[4]; Patient 2, Before
  Abdominal pain, Patient Recorded Outcome: 3
  Bleeding, Patient Recorded Outcome: 3
  Dependence on medication diarrhea and pain, Patient Recorded Outcome: 3
  Diarrhea, Patient Recorded Outcome: 3
  Frequent trips to the bathroom, Patient Recorded Outcome: 3
[4]; Patient 3, After
  Abdominal pain, Patient Recorded Outcome: 1
  Bleeding, Patient Recorded Outcome: 0
  Dependence on medication diarrhea and pain, Patient Recorded Outcome: 1
  Diarrhea, Patient Recorded Outcome: 2
  Frequent trips to the bathroom, Patient Recorded Outcome: 0
[4]; Patient 3, Before
  Abdominal pain, Patient Recorded Outcome: 3
  Bleeding, Patient Recorded Outcome: 3
  Dependence on medication diarrhea and pain, Patient Recorded Outcome: 3
  Diarrhea, Patient Recorded Outcome: 3
  Frequent trips to the bathroom, Patient Recorded Outcome: 3
[4]; three IBD patients
  incidences of joint pain, skin diseases or eye related complications: no incidences of joint pain, skin diseases or eye related complications
  tolerability: well tolerated
hemorrhoids; [10]
  Bloody stool, Median Value of Patient Reported Outcome: 0
  Difficulty to sit or walk, Median Value of Patient Reported Outcome: 1
  Edema, Median Value of Patient Reported Outcome: 1
  Itching, Median Value of Patient Reported Outcome: 2
  Pain, Median Value of Patient Reported Outcome: 2
hemorrhoids; Before Treatment
  Bloody stool, Median Value of Patient Reported Outcome: 5
  Difficulty to sit or walk, Median Value of Patient Reported Outcome: 5
  Edema, Median Value of Patient Reported Outcome: 3
  Itching, Median Value of Patient Reported Outcome: 5
  Pain, Median Value of Patient Reported Outcome: 5
hemorrhoids; five hemorrhoid patients, 300 mg twice daily
  relief of rectal bleeding: all patients were relieved of rectal bleeding on the 3rd day of treatment
